Experimental data reported in patent publication US5362738A, “Tricyclic pyridone derivatives” (Hoffmann-La Roche Inc., priority 1990, dated 1994).

Columns and labels:
[1] = system: spasmodic seizures caused by pentetrazole; test: antipentetrazole test (oral, mice); type: in vivo; conditions: Mus musculus, 0.5 h, p.o., 120 mg/kg pentetrazole i.p. 30 minutes later, 10 animals per dosage, Probit method, dosage protecting 50% of animals
Method: As mentioned above, the compounds of formula I have valuable pharmacological properties. In particular, they display pronounced muscle relaxant, sedative-hypnotic, anticonvulsive and/or anxiolytic properties and have a low toxicity.
(§1) In this animal experiment the compound under investigation is administered orally to mice and 30 minutes later there are administered intraperitoneally 120 mg/kg of pentetrazole, which causes emprosthotonus and tonic stretchings of the fore and/or hind limbs in unprotected animals 1-4 minutes after the injection. 10 experimental animals are used per dosage of test substance. After counting the protected experimental animals the ED50 is determined according to the Probit method. The ED50 is that dosage which protects 50% of the experimental animals from the spasmodic seizures caused by pentetrazole. The results which have been obtained with representative members of the class of compound defined by formula I in the experiment described previously are compiled in the following Table. Moreover, the Table contains data concerning the acute toxicity (LD50) of some of these compounds in mg/kg in the case of single oral administration to mice.

[2] = acute toxicity (LD50), single oral administration to mice; conditions: mouse, in vivo, p.o.
Method: as §1

COC1CN(C(=O)c2cc(-c3ccccc3)c(=O)n3c2-c2c(Cl)cccc2C3)C1 [H, 3-MeO-azetidino, --CCl=CH--CH=CH--, 1-[(10-chloro-4,6-dihydro-4-oxo-3-phenylpyrido[2,1-a]isoindol-1-yl)carbonyl]-3-methoxyazetidine]
ED50 [1]: 2.2 mg/kg

CN1CCN(C(=O)c2cc(-c3ccccc3)c(=O)n3c2-c2ccccc2C3)CC1.Cl [H, 4-Me-piperazino, --CH=CH--CH=CH--, 1-[(4,6-dihydro-4-oxo-3-phenylpyrido[2,1-a]isoindol-1-yl)carbonyl]-4-methyl-piperazine hydrochloride]
ED50 [1]: 5.7 mg/kg
LD50 [2]: 312 mg/kg

COC[C@H]1CCCN1C(=O)c1cc(-c2ccccc2)c(=O)n2c1-c1ccccc1C2 [H, (R)-2-MeOCH2 --Py--, --CH=CH--CH=CH--, (R)-1-[[4,6-dihydro-4-oxo-3-phenylpyrido[2,1-a]isoindol-1-yl]carbonyl]-2-(methoxymethyl)pyrrolidine]
ED50 [1]: 2.3 mg/kg
LD50 [2]: 1500 mg/kg

CO[C@H]1CCN(C(=O)c2cc(-c3ccccc3)c(=O)n3c2-c2sccc2C3)C1 [H, 3-MeO-pyrrolidino, --S--CH=CH--, (S)-1-[(4,6-dihydro-6-oxo-7-phenylthieno[2',3':3,4]pyrrolo[1,2-a]-pyridin-9-yl)carbonyl]-3-methoxypyrrolidine]
ED50 [1]: 1.7 mg/kg
LD50 [2]: 375 mg/kg

COC1CN(C(=O)c2cc(-c3ccccc3)c(=O)n3c2-c2sccc2C3)C1 [H, 3-MeO-azetidino, --S--CH=CH--, 1-[(4,6-dihydro-6-oxo-7-phenylthieno[2',3':3,4]pyrrolo[1,2-a]pyridin-9-yl)-carbonyl]-3-methoxyazetidine]
ED50 [1]: 2.1 mg/kg
LD50 [2]: 2500 mg/kg

COC1CN(C(=O)c2cc(-c3ccccc3)c(=O)n3c2-c2ccccc2C3)C1 [H, 3-MeO-azetidino, --CH=CH--CH=CH--, 1-[(4,6-dihydro-4-oxo-3-phenylpyrido[2,1-a]isoindol-1-yl)carbon-yl]-3-methoxyazetidine]
ED50 [1]: 0.39 mg/kg

COC[C@H]1CCCN1C(=O)c1cc(-c2ccccc2)c(=O)n2c1-c1sccc1C2 [H, (R)-2-MeOCH2 --Py--, --S--CH=CH--, (R)-1-[(4,6-dihydro-6-oxo-7-phenylthieno[2',3':3,4]pyrrolo[1,2-a]pyridin-9-yl)carbonyl]-2-(methoxymethyl)pyrrolidine]
ED50 [1]: 0.76 mg/kg
LD50 [2]: 625 mg/kg

CN(C)C(=O)c1cc(-c2ccccc2)c(=O)n2c1-c1ccccc1C2 [H, Me2 N--, --CH=CH--CH=CH--, N,N-dimethyl-4,6-dihydro-4-oxo-3-phenylpyrido[2,1-a]isoindole-1-carboxamide]
ED50 [1]: 0.73 mg/kg
LD50 [2]: 375 mg/kg

O=C(c1cc(-c2ccccc2)c(=O)n2c1-c1sccc1C2)N1CCOCC1 [H, Morpholino, --S--CH=CH--, 4-[(4,6-dihydro-6-oxo-7-phenylthieno[2',3':3,4]pyrrolo[1,2-a]pyridin-9-yl)carbonyl]-morpholine]
ED50 [1]: 1.32 mg/kg
LD50 [2]: 5000 mg/kg
